Where “and” joins values, the source holds several entries; their conditions need not be identical. Equal values may be shown once. Marks after values point to notes of the source that are not given here. Non-standard residues stand in square brackets, D forms with d. Residues, ends and D or L forms follow the SMILES beside them. *: point of attachment. Asu = N[C@@H](CCCCCC(=O)O)C(=O)O; NHOH = ON*
Tests used:
HDAC1 [1] = target: T1, HDAC1 (Homo sapiens, UniProt Q13547); test: Recombinant HDAC µSPOT microarray binding assay;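 further: slides with spotted peptides incubated with six HDAC concentrations in HEPES buffer pH 7.4, spot intensities fitted by four-parameter logistic, EC50 as enzyme concentration giving half-maximal binding signal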
T1 construct: HDAC1 (full length, C-terminal His tag, C-terminal FLAG tag, BPS Bioscience, cat. #: 50051); FLAG (C); purchased BPS Bioscience 50051
T1 sequence (Q13547 whole entry): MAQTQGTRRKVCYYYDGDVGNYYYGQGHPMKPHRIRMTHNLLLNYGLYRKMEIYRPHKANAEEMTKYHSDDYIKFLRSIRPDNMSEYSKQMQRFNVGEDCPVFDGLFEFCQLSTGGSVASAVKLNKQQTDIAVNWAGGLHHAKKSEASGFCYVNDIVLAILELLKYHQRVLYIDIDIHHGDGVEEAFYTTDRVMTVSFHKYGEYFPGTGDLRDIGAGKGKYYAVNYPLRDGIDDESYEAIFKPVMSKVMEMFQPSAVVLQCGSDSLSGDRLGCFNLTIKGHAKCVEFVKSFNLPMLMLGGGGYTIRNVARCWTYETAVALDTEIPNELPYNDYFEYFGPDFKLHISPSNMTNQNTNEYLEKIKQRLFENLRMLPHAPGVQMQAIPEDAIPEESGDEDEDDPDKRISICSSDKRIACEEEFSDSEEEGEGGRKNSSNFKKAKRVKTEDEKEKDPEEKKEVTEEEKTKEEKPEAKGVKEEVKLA

HDAC8 = target: T2, HDAC8 (Homo sapiens, UniProt Q9BY41); test: Recombinant HDAC µSPOT microarray binding assay;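 further: peptide µSPOT slides incubated with varying HDAC enzyme concentrations, imaged signal intensity fitted by four-parameter variable-slope regression, EC50 is enzyme concentration giving half-maximal binding, pH 7.4 HEPES buffer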
T2 construct: HDAC8 (full length, C-terminal His tag, BPS Bioscience, cat. #: 50008); purchased BPS Bioscience 50008
T2 sequence (Q9BY41 1-377): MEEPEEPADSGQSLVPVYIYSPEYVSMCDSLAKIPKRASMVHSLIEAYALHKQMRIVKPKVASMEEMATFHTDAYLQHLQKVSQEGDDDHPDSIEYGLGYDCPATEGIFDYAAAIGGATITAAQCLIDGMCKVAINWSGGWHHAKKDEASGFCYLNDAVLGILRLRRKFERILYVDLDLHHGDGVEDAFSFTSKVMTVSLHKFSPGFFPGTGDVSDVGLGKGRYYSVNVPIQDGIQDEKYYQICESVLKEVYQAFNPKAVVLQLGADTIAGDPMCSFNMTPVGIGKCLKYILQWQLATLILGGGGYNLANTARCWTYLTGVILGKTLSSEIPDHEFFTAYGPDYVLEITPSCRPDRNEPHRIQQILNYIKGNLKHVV

HDAC1 [2] = target: T1, HDAC1; test: HDAC inhibition assay (fluorogenic, Ac-Leu-Gly-Lys(Ac)-AMC); format: biochemical; conditions: for HDAC1 dose-response data (relative enzyme activity), Fig. 6 + S. Fig. 10: duplicate columns
HDACs 1‒3 and 8 = test: HDAC inhibition assays, statements across several class I isozymes; format: biochemical, human; conditions: resynthesized peptides, from Ki
HDAC2 = target: T3, HDAC2 (Homo sapiens, UniProt Q92769); test: HDAC inhibition assay (fluorogenic, Ac-Leu-Gly-Lys(Ac)-AMC); format: biochemical; conditions: for HDAC2 dose-response data (relative enzyme activity), Fig. 6 + S. Fig. 10: duplicate columns
T3 construct: HDAC2 (full length, C-terminal His tag, BPS Bioscience, cat. #: 50002); purchased BPS Bioscience 50002
T3 sequence (Q92769 whole entry): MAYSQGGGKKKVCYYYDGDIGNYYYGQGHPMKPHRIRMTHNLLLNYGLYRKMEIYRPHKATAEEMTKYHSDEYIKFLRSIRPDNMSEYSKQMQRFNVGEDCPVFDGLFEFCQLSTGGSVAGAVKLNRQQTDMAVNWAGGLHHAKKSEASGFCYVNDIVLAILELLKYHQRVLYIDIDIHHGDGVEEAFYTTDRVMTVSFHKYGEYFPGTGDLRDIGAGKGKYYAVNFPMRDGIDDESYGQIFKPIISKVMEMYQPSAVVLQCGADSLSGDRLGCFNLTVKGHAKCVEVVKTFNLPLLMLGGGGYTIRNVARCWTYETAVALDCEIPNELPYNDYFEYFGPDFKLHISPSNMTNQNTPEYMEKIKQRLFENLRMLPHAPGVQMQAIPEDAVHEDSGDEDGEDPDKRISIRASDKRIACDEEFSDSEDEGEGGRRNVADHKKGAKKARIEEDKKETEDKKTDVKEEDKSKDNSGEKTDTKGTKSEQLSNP

HDAC4 = target: T4, HDAC4 (Homo sapiens, UniProt P56524); test: HDAC inhibition assay (fluorogenic, Ac-Leu-Gly-Lys(Tfa)-AMC); format: biochemical; conditions: 2 internal replicates
T4 construct: purchased BPS Bioscience 50004
T4 sequence (P56524 627-1084): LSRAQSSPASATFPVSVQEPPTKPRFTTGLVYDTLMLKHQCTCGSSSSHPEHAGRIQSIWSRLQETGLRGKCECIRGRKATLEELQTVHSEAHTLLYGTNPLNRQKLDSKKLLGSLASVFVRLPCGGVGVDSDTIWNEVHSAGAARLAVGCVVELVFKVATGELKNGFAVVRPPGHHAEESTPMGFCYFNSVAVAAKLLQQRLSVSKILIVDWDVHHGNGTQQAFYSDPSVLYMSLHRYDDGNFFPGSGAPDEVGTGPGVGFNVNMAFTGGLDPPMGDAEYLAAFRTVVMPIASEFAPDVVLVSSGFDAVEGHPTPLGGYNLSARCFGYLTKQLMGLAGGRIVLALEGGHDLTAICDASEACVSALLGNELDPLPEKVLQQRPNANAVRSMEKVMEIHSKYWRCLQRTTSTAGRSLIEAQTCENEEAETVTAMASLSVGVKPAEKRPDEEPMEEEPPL

HDAC6 = target: T5, HDAC6 (Homo sapiens, UniProt Q9UBN7); test: HDAC inhibition assay (fluorogenic, Ac-Leu-Gly-Lys(Ac)-AMC); format: biochemical; conditions: HDAC6, replicates
T5 construct: HDAC6 (full length, BPS Bioscience, cat. #: 50056); purchased BPS Bioscience 50056
T5 sequence (Q9UBN7 1-1215): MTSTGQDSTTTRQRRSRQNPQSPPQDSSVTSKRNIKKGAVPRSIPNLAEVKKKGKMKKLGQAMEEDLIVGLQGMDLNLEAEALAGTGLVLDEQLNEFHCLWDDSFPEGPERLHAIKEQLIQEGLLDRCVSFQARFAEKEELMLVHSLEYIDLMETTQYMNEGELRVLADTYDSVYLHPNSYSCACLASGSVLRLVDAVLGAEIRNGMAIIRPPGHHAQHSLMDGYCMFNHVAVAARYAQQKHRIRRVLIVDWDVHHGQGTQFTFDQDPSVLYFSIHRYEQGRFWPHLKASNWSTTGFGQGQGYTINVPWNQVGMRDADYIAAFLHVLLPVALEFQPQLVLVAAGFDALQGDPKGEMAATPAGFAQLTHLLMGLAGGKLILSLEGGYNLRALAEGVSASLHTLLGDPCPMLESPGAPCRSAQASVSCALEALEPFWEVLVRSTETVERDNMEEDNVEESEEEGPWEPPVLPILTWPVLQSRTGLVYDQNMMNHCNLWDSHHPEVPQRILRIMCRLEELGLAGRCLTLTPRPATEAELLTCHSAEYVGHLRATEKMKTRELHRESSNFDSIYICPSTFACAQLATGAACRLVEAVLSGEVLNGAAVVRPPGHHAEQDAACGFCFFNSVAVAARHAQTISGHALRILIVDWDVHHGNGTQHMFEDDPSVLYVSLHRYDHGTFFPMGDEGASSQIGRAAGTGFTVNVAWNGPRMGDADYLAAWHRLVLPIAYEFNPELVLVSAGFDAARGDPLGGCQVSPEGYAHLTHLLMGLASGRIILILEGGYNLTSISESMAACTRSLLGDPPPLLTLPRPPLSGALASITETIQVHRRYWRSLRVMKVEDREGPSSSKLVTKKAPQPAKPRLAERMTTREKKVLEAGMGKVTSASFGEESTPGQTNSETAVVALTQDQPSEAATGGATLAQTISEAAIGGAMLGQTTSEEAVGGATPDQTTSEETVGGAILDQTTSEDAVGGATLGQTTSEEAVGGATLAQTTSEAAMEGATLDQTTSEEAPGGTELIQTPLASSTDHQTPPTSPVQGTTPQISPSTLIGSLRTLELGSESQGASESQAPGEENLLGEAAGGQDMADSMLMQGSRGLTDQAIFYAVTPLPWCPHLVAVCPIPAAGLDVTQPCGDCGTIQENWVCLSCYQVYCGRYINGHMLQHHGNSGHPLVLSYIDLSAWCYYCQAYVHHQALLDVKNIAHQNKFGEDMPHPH

HDAC3/NCoR2 [3] = target: T6, HDAC3/NCoR2 (Homo sapiens, UniProt O15379); test: Recombinant HDAC µSPOT microarray binding assay;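 further: peptide spots on cellulose slides incubated with rising HDAC enzyme concentrations, imaged together, four-parameter logistic fit, EC50 is enzyme concentration giving half-maximal binding signal, two experiments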
T6 construct: HDAC3/NCoR2 (full length, C-terminal His tag, NCoR2 N-terminal GST tag); purchased BPS Bioscience 50003
T6 sequence (O15379 whole entry): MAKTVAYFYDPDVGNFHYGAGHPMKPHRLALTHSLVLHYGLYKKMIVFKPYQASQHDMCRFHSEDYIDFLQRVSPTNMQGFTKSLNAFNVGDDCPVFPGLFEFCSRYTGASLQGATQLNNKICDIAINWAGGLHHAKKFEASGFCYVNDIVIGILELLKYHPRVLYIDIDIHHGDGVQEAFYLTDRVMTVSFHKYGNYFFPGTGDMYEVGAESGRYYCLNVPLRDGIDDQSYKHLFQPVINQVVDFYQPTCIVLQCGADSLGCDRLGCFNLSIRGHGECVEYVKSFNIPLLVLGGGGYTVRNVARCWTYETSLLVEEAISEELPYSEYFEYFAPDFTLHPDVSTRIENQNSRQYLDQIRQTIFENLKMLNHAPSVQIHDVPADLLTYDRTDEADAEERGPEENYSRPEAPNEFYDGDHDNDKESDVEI
T6 sequence (Q9Y618 389-480 partner limits assumed): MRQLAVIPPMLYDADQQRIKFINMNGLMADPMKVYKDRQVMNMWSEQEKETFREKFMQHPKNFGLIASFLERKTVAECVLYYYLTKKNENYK

HDAC3/NCoR2 [4] = target: T6, HDAC3/NCoR2; test: HDAC inhibition assay (fluorogenic, Ac-Leu-Gly-Lys(Ac)-AMC); format: biochemical; conditions: for HDAC3 dose-response data (relative enzyme activity), Fig. 6 + S. Fig. 10: duplicate columns
[5] = log[inhibitor(M)] -10,5850266520292*, whole line marked with asterisks

CC(=O)NCC(=O)NCC(=O)N[C@@H](CCCCCC(=O)NO)C(=O)N[C@@H](C)C(=O)N[C@@H](CCCNC(=N)N)C(=O)N[C@@H](C)C(=O)N[C@@H](CCCCN)C(=O)N[C@@H](C)C(=O)N[C@@H](CCCCN)C(=O)N[C@H](C(=O)N[C@@H](CCCNC(=N)N)C(=O)N[C@@H](CO)C(=O)N[C@@H](CO)C(=O)N[C@@H](CCCNC(=N)N)C(=O)N[C@@H](C)C(=O)NCC(=O)N[C@@H](Cc1c[nH]c2ccccc12)C(N)=O)[C@@H](C)O [9a] (Ac-GG[Asu](NHOH)ARAKAKTRSSRAGW-NH2)
EC50 (HDAC1 [1]): > 25.1 nM
EC50 (HDAC8): > 25.1 nM
Ki (HDAC1 [2]): 31.1 ± 0.2 nM
HDAC1 dose-response data (relative enzyme activity), Fig. 6 + S. Fig. 10 (HDAC1 [2]; log[inhibitor(M)] -5.69897): 7.627 and 13.3733
HDAC1 dose-response data (relative enzyme activity), Fig. 6 + S. Fig. 10 (HDAC1 [2]; log[inhibitor(M)] -6.39794): 29.353 and 31.2435
HDAC1 dose-response data (relative enzyme activity), Fig. 6 + S. Fig. 10 (HDAC1 [2]; log[inhibitor(M)] -7.09691): 58.5172 and 64.5613
HDAC1 dose-response data (relative enzyme activity), Fig. 6 + S. Fig. 10 (HDAC1 [2]; log[inhibitor(M)] -7.79588): 95.7003 and 88.0669
HDAC1 dose-response data (relative enzyme activity), Fig. 6 + S. Fig. 10 (HDAC1 [2]; log[inhibitor(M)] -8.49485): 105.543 and 108.963
HDAC1 dose-response data (relative enzyme activity), Fig. 6 + S. Fig. 10 (HDAC1 [2]; log[inhibitor(M)] -9.19382): 98.3062 and 98.503
HDAC1 dose-response data (relative enzyme activity), Fig. 6 + S. Fig. 10 (HDAC1 [2]; log[inhibitor(M)] -9.89279): 101.14 and 97.4578
HDAC1 dose-response data (relative enzyme activity), Fig. 6 + S. Fig. 10 (HDAC1 [2]; [5]): 103,131* and 101,221*
selectivity against HDACs 1‒3 versus HDAC8 (HDACs 1‒3 and 8): over 100 fold
HDAC2 dose-response data (relative enzyme activity), Fig. 6 + S. Fig. 10 (HDAC2; log[inhibitor(M)] -5): 5.281 and 8.057
HDAC2 dose-response data (relative enzyme activity), Fig. 6 + S. Fig. 10 (HDAC2; log[inhibitor(M)] -5.69897): 15.9037 and 16.112
HDAC2 dose-response data (relative enzyme activity), Fig. 6 + S. Fig. 10 (HDAC2; log[inhibitor(M)] -7.79588): 105.562 and 90.7957
HDAC2 dose-response data (relative enzyme activity), Fig. 6 + S. Fig. 10 (HDAC2; [5]): 99,9428* and 99,2519*
Ki (HDAC2; resynthesized peptide in solution, Cheng-Prusoff, n = 2): 48 ± 0.5 nM
residual enzymatic activity relative to control wells (HDAC4; inhibitor 5 µM): 94.96
remaining activity at 5 µM (HDAC4; inhibitor 5 µM, read-out: residual enzymatic activity relative to control wells): 97.8%
residual enzymatic activity relative to control wells (HDAC4; inhibitor 50 µM): 54.4
remaining activity at 50 µM (HDAC4; inhibitor 50 µM, read-out: residual enzymatic activity relative to control wells): 57.5%
residual enzymatic activity relative to control wells (HDAC6; log[inhibitor(M)] -4.30103): 0.99 and 1.47
residual enzymatic activity relative to control wells (HDAC6; log[inhibitor(M)] -5): 0.54 and 1.15
residual enzymatic activity relative to control wells (HDAC6; log[inhibitor(M)] -5.69897): 2.15 and 1.92
residual enzymatic activity relative to control wells (HDAC6; log[inhibitor(M)] -6.39794): 7.05 and 5.56
residual enzymatic activity relative to control wells (HDAC6; log[inhibitor(M)] -7.09691): 24.41 and 17.7
residual enzymatic activity relative to control wells (HDAC6; log[inhibitor(M)] -7.79588): 54.41 and 42.53
residual enzymatic activity relative to control wells (HDAC6; log[inhibitor(M)] -8.49485): 80.22 and 64.16
residual enzymatic activity relative to control wells (HDAC6; log[inhibitor(M)] -9.19382): 93.97 and 80.87
residual enzymatic activity relative to control wells (HDAC6; log[inhibitor(M)] -9.89279): 97.61 and 89.51
residual enzymatic activity relative to control wells (HDAC6; log[inhibitor(M)] -10.585): 98,6* and 92,44*
EC50 (HDAC3/NCoR2 [3]): 6.03 nM
Ki (HDAC3/NCoR2 [4]): 7.66 ± 0.07 nM
HDAC3 dose-response data (relative enzyme activity), Fig. 6 + S. Fig. 10 (HDAC3/NCoR2 [4]; log[inhibitor(M)] -4.30103): 0.3821 and 0.6391
HDAC3 dose-response data (relative enzyme activity), Fig. 6 + S. Fig. 10 (HDAC3/NCoR2 [4]; log[inhibitor(M)] -5): 2.293 and 2.409
HDAC3 dose-response data (relative enzyme activity), Fig. 6 + S. Fig. 10 (HDAC3/NCoR2 [4]; log[inhibitor(M)] -5.69897): 8.406 and 7.571
HDAC3 dose-response data (relative enzyme activity), Fig. 6 + S. Fig. 10 (HDAC3/NCoR2 [4]; log[inhibitor(M)] -6.39794): 24.6725 and 18.9774
HDAC3 dose-response data (relative enzyme activity), Fig. 6 + S. Fig. 10 (HDAC3/NCoR2 [4]; log[inhibitor(M)] -7.09691): 37.2271 and 35.3982
HDAC3 dose-response data (relative enzyme activity), Fig. 6 + S. Fig. 10 (HDAC3/NCoR2 [4]; log[inhibitor(M)] -7.79588): 64.8472 and 61.8977
HDAC3 dose-response data (relative enzyme activity), Fig. 6 + S. Fig. 10 (HDAC3/NCoR2 [4]; log[inhibitor(M)] -8.49485): 94.5961 and 96.0669
HDAC3 dose-response data (relative enzyme activity), Fig. 6 + S. Fig. 10 (HDAC3/NCoR2 [4]; log[inhibitor(M)] -9.19382): 98.4716 and 100.59
HDAC3 dose-response data (relative enzyme activity), Fig. 6 + S. Fig. 10 (HDAC3/NCoR2 [4]; log[inhibitor(M)] -9.89279): 99.7271 and 104.621
HDAC3 dose-response data (relative enzyme activity), Fig. 6 + S. Fig. 10 (HDAC3/NCoR2 [4]; [5]): 100,6* and 100,492*

Source: article PMC7782793, “Hydroxamic acid-modified peptide microarrays for profiling isozyme-selective interactions and inhibition of histone deacetylases” (Nature Communications, 2021)
